Results from patent US6028092A, “Salts of N-(4-Oxo-2-(1H-tetrazoyl-5-yl)-4H-1-benzopyran-8-yl)-4-(4-phenylbutoxy)b enzamide” (SmithKline Beecham p.l.c, priority 1995, dated 2000).
Values after ≈ are worked out from the molar mass of the structure shown. Read-outs that look alike come from different tables or passages of the source.

How the values were obtained:
[1] = Solubility of Compound 1 salts in water, ethanol and PEG 400; assay type: physicochemical
[2] = In-situ solubilisation of sodium salt of Compound 1 in PEG 200 by trituration with sodium acetate; assay type: physicochemical; conditions: organic solvent or mixture; PEG 200 (30 mL), sodium acetate (2.5 g), Compound 1 (7.4 g); read-out: concentration solubilised in-situ
Description: (§1) In the presence of excess acetate the salts formed in situ are freely soluble even in an aqueous alcoholic medium with a water content of 50%. With lower water contents or in the absence of water the solubility can be improved further. For example when PEG 200 (30 mL) sodium acetate (2.5 g) and Compound 1 (7.4 g) were triturated in a mortar and pestle the sodium salt of Compound 1 formed in-situ was solubilised to a concentration greater than 200 g/l.

[3] = rat, in vivo, po
[4] = Solubility of Compound 1 in 50% 0.1M salt solution (pH7)/50% absolute alcohol; assay type: physicochemical
Text: Solubility of Compound 1 in 50% 0.1M salt solution (pH7)/50%

[5] = In-situ solubilisation: solubility of Compound 1 in 50% acetate solution (0.1M) / 50% ethanol; assay type: physicochemical
Description: Although the salts of Compound 1 are freely soluble in solvents such as ethanol further improvements have been observed when the salts are prepared in situ.
Solubility of Compound 1 in 50% Acetate Solution (0.1M) and 50%
as §1

[6] = Solubility of Compound 1 in 50% solvent systems/50% sodium phosphate (pH7) at different molarities; assay type: physicochemical
Description: The scope of in-situ solubilisation in terms of solvent type and buffer concentration can be seen in Table 4. In these experiments the sodium salt of Compound 1 was prepared through the presence of varying concentrations of sodium phosphate buffer solution with 50% of the test solvent.
Solubility of Compound 1 in 50% solvent systems/50% sodium
phosphate (pH7) at different molarities
No value was obtained for those N/T samples because the solvents were immiscible with the buffer solution at those concentrations.

For `O=C(Nc1cccc2c(=O)cc(-c3nnn[nH]3)oc12)c1ccc(OCCCCc2ccccc2)cc1` [Sodium], the Solubility in ethanol [1] was > 10000 µg/mL, the solubility ([1]; peg 400, organic solvent or mixture, PEG 400, read-out: Solubility in PEG 400) was > 10000 µg/mL and the Solubility in water ([1]; water) was 40 µg/mL. For the same molecule, the solubility [2] was > 200000 µg/mL.

In the case of `O=C(Nc1cccc2c(=O)cc(-c3nnn[nH]3)oc12)c1ccc(OCCCCc2ccccc2)cc1` [Ammonium], the “Solubility in PEG 400” value ([1]; PEG 400) is reported as > 10000 µg/mL, the Solubility in ethanol [1] is reported as 9330 µg/mL and the Solubility in water ([1]; water) is reported as 280 µg/mL. The “absorption, in words” value [3] was “reasonably well absorbed”, the “increase of absolute bioavailability relative to the parent acid” value [3] was “approximately tenfold” and the “AUC)-t or infinity” value ([3]; 20 mg/kg) was 81490.5 ± 23670.3 µg·min/mL. For the same molecule, the BA ([3]; 20 mg/kg) was 7.15 ± 2.08%, the CMAX ([3]; 20 mg/kg) was 548.5 ± 165.7 ng/mL and the TMAX ([3]; 20 mg/kg) was 53.1 ± 29.8 min. For the same molecule, the “AUC)-t or infinity” value ([3]; 80 mg/kg) was 66722.9 ± 16472.6, the BA ([3]; 80 mg/kg) was 1.46 ± 0.36% and the CMAX ([3]; 80 mg/kg) was 264.5 ± 64.06 ng/mL. It also gave a TMAX ([3]; 80 mg/kg) of 150.5 ± 34.1 min and a bioavailability (in vivo; rat, in vivo, po, 20 mg/kg, absolute bioavailability) of ~7%.

In the case of `O=C(Nc1cccc2c(=O)cc(-c3nnn[nH]3)oc12)c1ccc(OCCCCc2ccccc2)cc1` [Meglumine], the “Solubility in PEG 400” value ([1]; PEG 400) is reported as 9200 µg/mL, the Solubility in ethanol [1] is reported as 3060 µg/mL and the Solubility in water ([1]; water) is reported as 340 µg/mL. The “absorption, in words” value [3] was “evidence of enhanced absorption”, the “increase of absolute bioavailability relative to the parent acid” value [3] was “approximately fourfold” and the “AUC)-t or infinity” value ([3]; 20 mg/kg) was 35290.4 ± 11719.1. For the same molecule, the BA ([3]; 20 mg/kg) was 3.09 ± 1.03%, the CMAX ([3]; 20 mg/kg) was 207.7 ± 112.2 ng/mL and the “AUC)-t or infinity” value ([3]; 80 mg/kg) was 59012.7 ± 17096.3 µg·min/mL. The BA ([3]; 80 mg/kg) was 1.29 ± 0.37%, the CMAX ([3]; 80 mg/kg) was 263.0 ± 139.5 ng/mL and the TMAX ([3]; 80 mg/kg) was 97.5 ± 66.2 min. It also gave a TMAX (in vivo; rat, in vivo, po, 20 mg/kg, TMAX) of 53.1 min.

With `O=C(Nc1cccc2c(=O)cc(-c3nnn[nH]3)oc12)c1ccc(OCCCCc2ccccc2)cc1` [Ethylenediamine] the solubility [4] was 1700 µg/mL.

In the case of `O=C(Nc1cccc2c(=O)cc(-c3nnn[nH]3)oc12)c1ccc(OCCCCc2ccccc2)cc1` [Calcium], the “Solubility in PEG 400” value ([1]; PEG 400) is reported as 8420 µg/mL and the Solubility in ethanol [1] is reported as 360 µg/mL.

Molecule `O=C(Nc1cccc2c(=O)cc(-c3nnn[nH]3)oc12)c1ccc(OCCCCc2ccccc2)cc1` [Tris] has a solubility ([4]; 50% salt solution/50% ethanol, pH 7, organic solvent or mixture, read-out: Solubility) of 1600 µg/mL.

For `O=C(Nc1cccc2c(=O)cc(-c3nnn[nH]3)oc12)c1ccc(OCCCCc2ccccc2)cc1` [Compound 1, N-[4-Oxo-2-(1H-tetrazol-5-yl)-4H-1-benzopyran-8-yl]-4-(4-phenylbutoxy)benzamide], the solubility ([1]; water, aqueous, free acid, read-out: aqueous solubility of Compound 1 free acid) was < 10 µg/mL, the solubility ([5]; 0.1m ammonium acetate/ethanol 50:50, organic solvent or mixture, ammonium acetate 0.1M 50% / ethanol 50%) was 11500 µg/mL (≈ 23.9 mM) and the solubility ([5]; 0.1m calcium acetate/ethanol 50:50, organic solvent or mixture, calcium acetate 0.1M 50% / ethanol 50%) was 400 µg/mL (≈ 0.831 mM). The solubility ([5]; 0.1m potassium acetate/ethanol 50:50, organic solvent or mixture, potassium acetate 0.1M 50% / ethanol 50%) was 12200 µg/mL (≈ 25.3 mM), the solubility ([5]; 0.1m sodium acetate/ethanol 50:50, organic solvent or mixture, sodium acetate 0.1M 50% / ethanol 50%) was 11000 µg/mL (≈ 22.8 mM) and the solubility ([6]; 50% ethanol/0.1m sodium phosphate, pH 7, organic solvent or mixture, 50% ethanol / 50% sodium phosphate pH7, 0.1M) was 16200 µg/mL (≈ 33.6 mM). It also gave a solubility ([6]; 50% glycerol/0.1m sodium phosphate, pH 7, organic solvent or mixture, 50% glycerol / 50% sodium phosphate pH7, 0.1M) of 200 µg/mL (≈ 0.415 mM), a solubility ([6]; 50% glycerol/0.25m sodium phosphate, pH 7, organic solvent or mixture, 50% glycerol / 50% sodium phosphate pH7, 0.25M) of 50 µg/mL (≈ 0.104 mM) and a solubility ([6]; 50% glycerol/0.5m sodium phosphate, pH 7, organic solvent or mixture, 50% glycerol / 50% sodium phosphate pH7, 0.5M) of 40 µg/mL (≈ 0.0831 mM). It also gave a solubility ([6]; 50% glycofurol/0.1m sodium phosphate, pH 7, 50% glycofurol / 50% sodium phosphate pH7, 0.1M) of 19500 µg/mL (≈ 40.5 mM), a solubility ([6]; 50% methanol/0.1m sodium phosphate, pH 7, organic solvent or mixture, 50% methanol / 50% sodium phosphate pH7, 0.1M) of 2200 µg/mL (≈ 4.57 mM) and a solubility ([6]; 50% methanol/0.25m sodium phosphate, pH 7, organic solvent or mixture, 50% methanol / 50% sodium phosphate pH7, 0.25M) of 1100 µg/mL (≈ 2.28 mM). For the same molecule, the solubility ([6]; 50% methanol/0.5m sodium phosphate, pH 7, organic solvent or mixture, 50% methanol / 50% sodium phosphate pH7, 0.5M) was 900 µg/mL (≈ 1.87 mM), the solubility ([6]; 50% n-propanol/0.1m sodium phosphate, pH 7, organic solvent or mixture, 50% n-propanol / 50% sodium phosphate pH7, 0.1M) was 18000 µg/mL (≈ 37.4 mM) and the solubility ([6]; 50% n-propanol/0.25m sodium phosphate, pH 7, organic solvent or mixture, 50% n-propanol / 50% sodium phosphate pH7, 0.25M) was 43100 µg/mL (≈ 89.5 mM). For the same molecule, the solubility ([6]; 50% n-propanol/0.5m sodium phosphate, pH 7, organic solvent or mixture, 50% n-propanol / 50% sodium phosphate pH7, 0.5M) was 56300 µg/mL (≈ 117 mM), the solubility ([6]; 50% peg 400/0.1m sodium phosphate, pH 7, organic solvent or mixture, 50% PEG 400 / 50% sodium phosphate pH7, 0.1M) was 20500 µg/mL (≈ 42.6 mM) and the solubility ([6]; 50% peg 400/0.25m sodium phosphate, pH 7, organic solvent or mixture, 50% PEG 400 / 50% sodium phosphate pH7, 0.25M) was 23700 µg/mL (≈ 49.2 mM). It also gave a solubility ([6]; 50% peg 400/0.5m sodium phosphate, pH 7, organic solvent or mixture, 50% PEG 400 / 50% sodium phosphate pH7, 0.5M) of 26600 µg/mL (≈ 55.2 mM), a solubility ([6]; 50% propylene glycol/0.1m sodium phosphate, pH 7, organic solvent or mixture, 50% propylene glycol / 50% sodium phosphate pH7, 0.1M) of 1700 µg/mL (≈ 3.53 mM) and a solubility ([6]; 50% propylene glycol/0.25m sodium phosphate, pH 7, organic solvent or mixture, 50% propylene glycol / 50% sodium phosphate pH7, 0.25M) of 700 µg/mL (≈ 1.45 mM). The solubility ([6]; 50% propylene glycol/0.5m sodium phosphate, pH 7, organic solvent or mixture, 50% propylene glycol / 50% sodium phosphate pH7, 0.5M) was 500 µg/mL (≈ 1.04 mM), the solubility ([6]; 50% thf/0.1m sodium phosphate, pH 7, organic solvent or mixture, 50% THF / 50% sodium phosphate pH7, 0.1M) was 22300 µg/mL (≈ 46.3 mM) and the solubility ([6]; 50% thf/0.25m sodium phosphate, pH 7, organic solvent or mixture, 50% THF / 50% sodium phosphate pH7, 0.25M) was 49300 µg/mL (≈ 102 mM). The solubility ([6]; 50% thf/0.5m sodium phosphate, pH 7, organic solvent or mixture, 50% THF / 50% sodium phosphate pH7, 0.5M) was 101000 µg/mL (≈ 210 mM), the TMAX ([3]; 80 mg/kg) was 22.6 ± 14.9 min and the half-life (in vivo; rat, in vivo, iv, 3 mg/kg) was 23.2 ± 28.4 min. The AUC (in vivo; rat, in vivo, iv, 3 mg/kg, AUC)-t or infinity) was 2850 µg·h/mL, the AUC (in vivo; rat, in vivo, po, 80 mg/kg, AUC)-t or infinity) was 607 µg·h/mL and the bioavailability (in vivo; rat, in vivo, po, 80 mg/kg, BA) was 0.8 ± 0.16%. The CMAX (in vivo; rat, in vivo, po, 80 mg/kg, CMAX) was 207 ± 57.2 ng/mL.
